Test in all cases: In vitro cell proliferation assay (CellTiter-Glo)
Holding throughout (format): cell-based

For one experiment, the system named is HCT-116. Particulars: Homo sapiens, HCT-116 cells, 72 h treatment, read-out: Cell Line IC50 HCT-116. How it is done: (§1) Human cancer cell lines were seeded in white 384 well-plates (1250 cells/well) in complete medium (RPM11640 or E-MEM plus 10% Fetal bovine serum) and treated with compounds dissolved in 0.1% DMSO, 24 h after seeding. The cells were incubated at 37° C. and 5% CO2 and after 72 h the plates were processed using CellTiter-Glo assay (Promega) following the manufacturer's instruction.
(§2) CellTiter-Glo is a homogenous method based on the quantification of the ATP present, an indicator of metabolically active cells. ATP is quantified using a system based on luciferase and D-luciferin resulting into light generation.
(§3) Briefly, 25 μL/well of reagent solution are added to each well and, after 5 minutes shaking, microplates are read by a luminometer. The luminescent signal is proportional to the number of live cells present in culture.
(§4) Dose-response curves were generated by sigmoid function interpolation of 8 concentration points and the antiproliferative activity of compounds was reported as the half-maximal inhibitory concentration (IC50).

In another experiment the test system is MDA-MB_213. The note with it: Homo sapiens, MDA-MB_213 cells, 72 h treatment, read-out: Cell Line IC50 MDA-MB_213. How it is done:
as §1, §2, §3, §4

The next experiment deals with MDA-MB-468. Particulars: Homo sapiens, MDA-MB-468 cells, 72 h treatment, read-out: Cell Line IC50 MDA-MB-468. How it is done: as §1, §2, §3, §4
A further experiment relates to HCC1954. Particulars: Homo sapiens, HCC1954 cells, 72 h treatment, read-out: Cell Line IC50 HCC1954. How it is done:
as §1, §2, §3, §4

The test system of the next experiment is MCF7. Particulars: Homo sapiens, MCF7 cells, 72 h treatment, read-out: Cell Line IC50 MCF7. How it is done: as §1, §2, §3, §4
The test system of the next experiment is HELA. The note with it: Homo sapiens, HELA cells, 72 h treatment, read-out: Cell Line IC50 HELA. How it is done: as §1, §2, §3, §4
The subject of the next experiment is A2780. The note with it: Homo sapiens, A2780 cells, 72 h treatment, read-out: Cell Line IC50 A2780. How it is done:
as §1, §2, §3, §4

Molecules are shown by their SMILES.

Among the data in patent US20170312290A1, “FUNCTIONALIZED MORPHOLINYL ANTHRACYCLINE DERIVATIVES” (Nerviano Medical Sciences S.R.L., priority 2014, published 2017) are IC50 values, retold here.

As a reminder, the IC50 is the midpoint of a concentration-inhibition curve. Take `CO[C@H]1OCCN2[C@@H]1O[C@@H]1[C@H](C)O[C@@H](O[C@H]3C[C@](O)(C(C)=O)Cc4c(O)c5c(c(O)c43)C(=O)c3c(F)cccc3C5=O)C[C@@H]12` [Comp. 21, (8S,10S)-8-acetyl-1-fluoro-6,8,11-trihydroxy-10-{[(1S,3R,4aS,9aR,10aS)-9-methoxy-1-methyloctahydro-1H-pyrano[4′,3′:4,5][1,3]oxazolo[2,3-c][1,4]oxazin-3-yl]oxy}-7,8,9,10-tetrahydrotetracene-5,12-dione]: the half-maximal inhibitory concentration (IC50) with HCT-116 stood at 0.146 nM; in the experiment on MDA-MB_213 it was 0.306 nM; in the experiment with MDA-MB-468, 0.072 nM; with HCC1954, 0.377 nM; in the experiment on MCF7 it was 3.52 nM; with HELA, 0.349 nM. Further, the IC50 with A2780 came out at 0.032 nM.

For `CO[C@H]1OCCN2[C@@H]1O[C@@H]1[C@H](C)O[C@@H](O[C@H]3C[C@](O)(C(C)=O)Cc4c(O)c5c(c(O)c43)C(=O)c3c(N)cccc3C5=O)C[C@@H]12` [Comp. 22, (8S,10S)-8-acetyl-1-amino-6,8,11-trihydroxy-10-{[(1S,3R,4aS,9S,9aR,10aS)-9-methoxy-1-methyloctahydro-1H-pyrano[4′,3′:4,5][1,3]oxazolo[2,3-c][1,4]oxazin-3-yl]oxy}-7,8,9,10-tetrahydrotetracene-5,12-dione], the concentration for half-maximal inhibition (IC50) is 0.2 nM in the experiment with HCT-116; 0.538 nM in the experiment on MDA-MB_213; 0.313 nM with MDA-MB-468; 0.549 nM in the experiment on HCC1954; 0.668 nM with MCF7; 0.7 nM in the experiment on HELA. In the experiment with A2780, the IC50 stood at 0.044 nM.

Take `CO[C@H]1OCCN2[C@@H]1O[C@@H]1[C@H](C)OC(O[C@H]3C[C@](O)(C(C)=O)Cc4c(O)c5c(c(O)c43)C(=O)c3c(NC(=O)[C@H](C)N)cccc3C5=O)C[C@@H]12` (some centres unmarked) [Comp. 26]: the IC50 was found to be 1.1 nM in the experiment with HCT-116; 2.3 nM in the experiment with MDA-MB-468; 4.8 nM in the experiment on HCC1954; 3.8 nM in the experiment on MCF7; 3.5 nM in the experiment with HELA; 1.2 nM in the experiment with A2780.
